Source: US20260297542A1, “HERBICIDE RESISTANT PLANTS” (SYNGENTA CROP PROTECTION AG, priority 2023, published 2026)
Substitutions are numbered along the chain they refer to.

Key:
[1] = target: T1, AtPPO1 S305L G404A Y426V T431R L479N (SEQ ID NO.127) (Arabidopsis thaliana, UniProt P55826, G404A/L479N/S305L/T431R/Y426V); assay: fluorescent Protoporphyrinogen Oxidase assay, crude extract; type: biochemical; settings: read-out: percentage inhibition
T1 construct: made in house; host or cells: E. coli BL21 (DE3) hemG, crude extract
T1 sequence (P55826 35-537 S305L/G404A/Y426V/T431R/L479N): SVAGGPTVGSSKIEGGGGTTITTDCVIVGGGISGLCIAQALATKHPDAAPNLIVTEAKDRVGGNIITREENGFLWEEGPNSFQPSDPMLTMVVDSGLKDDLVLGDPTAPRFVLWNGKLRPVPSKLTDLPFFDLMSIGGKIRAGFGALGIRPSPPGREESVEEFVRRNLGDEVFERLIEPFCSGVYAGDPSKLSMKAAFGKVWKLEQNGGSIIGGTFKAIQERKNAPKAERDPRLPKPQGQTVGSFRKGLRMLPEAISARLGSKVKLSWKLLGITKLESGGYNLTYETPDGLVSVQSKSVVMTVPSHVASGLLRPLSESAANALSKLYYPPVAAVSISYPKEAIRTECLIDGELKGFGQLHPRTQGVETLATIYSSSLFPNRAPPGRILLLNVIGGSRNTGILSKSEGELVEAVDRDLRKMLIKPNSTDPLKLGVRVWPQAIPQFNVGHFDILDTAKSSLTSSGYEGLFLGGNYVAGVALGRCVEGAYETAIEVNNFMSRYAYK
Procedure: (§1) A pET24 plasmid containing a DNA sequence encoding each identified variant mutant of AtPPO1 derived from Arabidopsis thaliana, codon-optimised for expression in E. coli, and under control of a T7 promoter, was synthesised by Twist Bioscience. This plasmid was expressed in E. coli BL21 (DE3) hemG with 50 μg/mL kanamycin and 25 μg/mL chloramphenicol selection. Overnight cultures grown at 37° C. were used to inoculate 150 ml AIM (AIM-Terrific Broth Base including Trace elements, Formedium) in 500 ml shake flasks at a ratio of 1:100. Cultures were grown at 37° C., 200 rpm for 3 hours and then overnight at 26° C. Cells were harvested by 4° C. centrifugation for 20 minutes at 600 rpm. Cells were stored at −80° C. until extraction. 0.5-1 g of cell pellet from was thawed and resuspended in ratio of 1:1 in lysis buffer (20 mM Tris pH8, 500 mM sodium chloride, 10% glycerol, 1× complete Protease EDTA-free Inhibitor Tablet (Roche)). The resuspension was sonicated at 50% using 10-20 cycles of 10 seconds, 20 seconds off. After sonication Triton X-100 was added to the lysates at a final concentration of 0.5%. The lysates were centrifuged at 13.00 rpm for 10 min at 4° C. The crude extracts (i.e, supernatants) were stored at −80° C. Protein concentration was measured and calculated using the absorbance at 280 nm. Extracts were diluted 1 in 4 and 10 uL was analysed by SDS PAGE.
(§2) Variant crude extracts were assayed in a fluorescent Protoporphyrinogen Oxidase assay in black 384 well plates with a clear bottom. The total volume of the reaction mixture was 100 ul and contained 100 mM K2HPO4 pH7.2, 1 mM Na2EDTA, 5 mM DTT, 20% glycerol (v/v), 0.025% Tween 20 (v/v). Reactions were started with addition of 1 uM protoporphyrinogen IX final assay concentration. Fluorescence was monitored over 30 min using a Tecan plate reader with an excitation wavelength of 405 nm, emission wavelength of 635 nm, gain of 90 and 15 flashes. 10 ul of 3-fold serial dilution of crude extract in 100 mM K2HPO4 pH7.2, 1 mM Na2EDTA, 5 mM DTT, 20% glycerol (v/v), 0.05% Tween 20 (v/v) was tested in the assay against 1% DMSO and 100 ppm herbicide B to determine the correct amount of crude extract to add to the assay to observe activity. 10 ul of the appropriate crude extract dilution was then tested in the fluorescent Protoporphyrinogen Oxidase assay against DMSO and 10-fold dose response of each compound (herbicides A to E) with a top rate of 100 ppm.
(§3) The percentage inhibition was calculated as the activity in the presence of one of four concentrations of each herbicide compound A to E (note that the compounds labelled as A to E are identified hereinabove in the relevant section of the description) as a percentage of the enzyme activity in DMSO (Table 5).

[2] = target: T2, AtPPO1 S305L Y362F G404A (SEQ ID NO.129) (Arabidopsis thaliana, UniProt P55826, G404A/S305L/Y362F); assay: as above; type: biochemical; settings: read-out: percentage inhibition
T2 construct: made in house; host or cells: E. coli BL21 (DE3) hemG, crude extract
T2 sequence (P55826 35-537 S305L/Y362F/G404A): T1 sequence (P55826 35-537 S305L/G404A/Y426V/T431R/L479N) with Y328F, V392Y, R397T, N445L
Procedure: as §1, §2, §3

SMILES: CC(C)N(C)S(=O)(=O)NC(=O)c1cc(-n2c(=O)cc(C(F)(F)F)n(C)c2=O)c(F)cc1Cl [Herbicide E, saflufenacil]
- inhibition at 0.1 ppm [1]: 11%
- inhibition at 1 ppm [1]: 48%
- inhibition at 10 ppm [1]: 75%
- inhibition at 100 ppm [1]: 92%
- inhibition at 0.1 ppm [2]: 15%
- inhibition at 1 ppm [2]: 53%
- inhibition at 10 ppm [2]: 84%
- inhibition at 100 ppm [2]: 100%

SMILES: C#CCN1C(=O)C(F)(F)Oc2cc(F)c(-n3c(=O)n(C)c(=S)n(C)c3=O)cc21 [Herbicide B, trifludimoxazin]
- inhibition at 0.1 ppm [1]: 91%
- inhibition at 1 ppm [1]: 100%
- inhibition at 10 ppm [1]: 100%
- inhibition at 100 ppm [1]: 100%
- inhibition at 0.1 ppm [2]: 70%
- inhibition at 1 ppm [2]: 93%
- inhibition at 10 ppm [2]: 97%
- inhibition at 100 ppm [2]: 100%

SMILES: CCOC(=O)[C@]1(C)CC(c2cc(-n3c(=O)n(C)c(=S)n(C)c3=O)c(F)cc2Cl)=NO1 [Herbicide D, ethyl (5S)-3-[2-chloro-5-(3,5-dimethyl-2,6-dioxo-4-thioxo-1,3,5-triazinan-1-yl)-4-fluoro-phenyl]-5-methyl-4H-isoxazole-5-carboxylate]
- inhibition at 0.1 ppm [1]: 13%
- inhibition at 1 ppm [1]: 40%
- inhibition at 10 ppm [1]: 75%
- inhibition at 100 ppm [1]: 92%
- inhibition at 0.1 ppm [2]: 9%
- inhibition at 1 ppm [2]: 45%
- inhibition at 10 ppm [2]: 83%
- inhibition at 100 ppm [2]: 96%

SMILES: CCOC(=O)C1(C)CC(c2cc(-n3c(=O)cc(C(F)(F)F)n(C)c3=O)c(F)cc2Cl)=NO1 (stereo not shown) [Herbicide C, 3-(2-chloro-4-fluoro-5-(3-methyl-2,6-dioxo-4-trifluoromethyl-3,6-dihydropyrimidin-1(2H)-yl)phenyl)-5-methyl-4,5-dihydroisoxazole-5-carboxylic acid ethyl ester]
- inhibition at 0.1 ppm [1]: 47%
- inhibition at 1 ppm [1]: 57%
- inhibition at 10 ppm [1]: 83%
- inhibition at 100 ppm [1]: 96%
- inhibition at 0.1 ppm [2]: 24%
- inhibition at 1 ppm [2]: 76%
- inhibition at 10 ppm [2]: 93%
- inhibition at 100 ppm [2]: 100%

SMILES: CCOC(=O)COc1ncccc1Oc1cc(-n2c(=O)cc(C(F)(F)F)n(C)c2=O)c(F)cc1Cl [Herbicide A, epyrifenacil]
- inhibition at 0.1 ppm [1]: 9%
- inhibition at 1 ppm [1]: 45%
- inhibition at 10 ppm [1]: 69%
- inhibition at 100 ppm [1]: 88%
- inhibition at 0.1 ppm [2]: 25%
- inhibition at 1 ppm [2]: 78%
- inhibition at 10 ppm [2]: 92%
- inhibition at 100 ppm [2]: 100%
